Reference: ChEMBL document CHEMBL1201862, “PubChem BioAssay data set” (2004)
Calls of active or inactive are those of the source.

Experiments:
[1] = NIH3T3 cell viability loss – ATP luminescence, mouse fibroblasts, counter-screen, dose response (AID 2010); assay type: functional, cell-based;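 note: cells exposed to compound for about 90 hours before reading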
[2] = molecular target: T1, RNA-binding protein pos-1 (Caenorhabditis elegans, UniProt G5EF15); assay: disruptors of C. elegans POS-1 RNA interaction – biochemical, fluorescence polarization, dose response (AID 1964);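 note: purified POS-1 fused to maltose binding protein made in E. coli; potency of compounds blocking POS-1 binding to fluorescent RNA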
T1 sequence (G5EF15 whole entry): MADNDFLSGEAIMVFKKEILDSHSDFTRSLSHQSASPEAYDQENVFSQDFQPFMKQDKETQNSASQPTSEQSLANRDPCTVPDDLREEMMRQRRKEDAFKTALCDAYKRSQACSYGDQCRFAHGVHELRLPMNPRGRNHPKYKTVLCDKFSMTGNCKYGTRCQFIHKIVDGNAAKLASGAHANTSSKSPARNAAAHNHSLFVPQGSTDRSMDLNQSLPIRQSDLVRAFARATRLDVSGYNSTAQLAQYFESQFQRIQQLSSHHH

[3] = molecular target: T2, Zinc finger protein mex-5 (Caenorhabditis elegans, UniProt Q9XUB2); assay: potency of MEX-5 RNA-binding blockers – biochemical, C. elegans, fluorescence polarization, dose response (AID 1960)
T2 sequence (Q9XUB2 whole entry): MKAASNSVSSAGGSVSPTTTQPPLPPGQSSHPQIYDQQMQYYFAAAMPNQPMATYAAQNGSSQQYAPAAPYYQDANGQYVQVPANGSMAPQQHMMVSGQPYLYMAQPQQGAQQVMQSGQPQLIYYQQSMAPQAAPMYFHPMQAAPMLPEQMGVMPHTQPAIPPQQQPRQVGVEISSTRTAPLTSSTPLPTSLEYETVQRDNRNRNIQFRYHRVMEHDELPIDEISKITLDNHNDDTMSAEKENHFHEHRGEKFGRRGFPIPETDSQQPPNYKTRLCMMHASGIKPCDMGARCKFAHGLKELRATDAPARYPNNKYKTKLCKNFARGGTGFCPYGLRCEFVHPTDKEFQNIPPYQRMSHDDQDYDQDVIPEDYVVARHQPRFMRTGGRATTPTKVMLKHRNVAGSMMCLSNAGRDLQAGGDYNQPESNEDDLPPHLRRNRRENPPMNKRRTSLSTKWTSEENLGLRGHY

[4] = viability loss in THP-1 monocytes – THP-1 cells, cytotoxicity control for Vif-APOBEC3G degradation inhibitor project, dose response (AID 1117359); assay type: functional; conditions: THP-1
[5] = general cell-killing toxicity readout – plate reader, dry powder samples, cytotoxicity control for PAX8 inhibitor project, dose response (AID 743021); assay type: functional, cell-based
[6] = loss of viability in HepG2 cells – cell-based, CellTiter-Glo, cherry-picked, cytotoxicity control for Shn3 inhibitor project, dose response (AID 624134); assay type: functional
[7] = molecular target: Non-receptor tyrosine-protein kinase TYK2 (Homo sapiens, UniProt P29597); assay type: functional
Sequence of Non-receptor tyrosine-protein kinase TYK2 (P29597 whole entry): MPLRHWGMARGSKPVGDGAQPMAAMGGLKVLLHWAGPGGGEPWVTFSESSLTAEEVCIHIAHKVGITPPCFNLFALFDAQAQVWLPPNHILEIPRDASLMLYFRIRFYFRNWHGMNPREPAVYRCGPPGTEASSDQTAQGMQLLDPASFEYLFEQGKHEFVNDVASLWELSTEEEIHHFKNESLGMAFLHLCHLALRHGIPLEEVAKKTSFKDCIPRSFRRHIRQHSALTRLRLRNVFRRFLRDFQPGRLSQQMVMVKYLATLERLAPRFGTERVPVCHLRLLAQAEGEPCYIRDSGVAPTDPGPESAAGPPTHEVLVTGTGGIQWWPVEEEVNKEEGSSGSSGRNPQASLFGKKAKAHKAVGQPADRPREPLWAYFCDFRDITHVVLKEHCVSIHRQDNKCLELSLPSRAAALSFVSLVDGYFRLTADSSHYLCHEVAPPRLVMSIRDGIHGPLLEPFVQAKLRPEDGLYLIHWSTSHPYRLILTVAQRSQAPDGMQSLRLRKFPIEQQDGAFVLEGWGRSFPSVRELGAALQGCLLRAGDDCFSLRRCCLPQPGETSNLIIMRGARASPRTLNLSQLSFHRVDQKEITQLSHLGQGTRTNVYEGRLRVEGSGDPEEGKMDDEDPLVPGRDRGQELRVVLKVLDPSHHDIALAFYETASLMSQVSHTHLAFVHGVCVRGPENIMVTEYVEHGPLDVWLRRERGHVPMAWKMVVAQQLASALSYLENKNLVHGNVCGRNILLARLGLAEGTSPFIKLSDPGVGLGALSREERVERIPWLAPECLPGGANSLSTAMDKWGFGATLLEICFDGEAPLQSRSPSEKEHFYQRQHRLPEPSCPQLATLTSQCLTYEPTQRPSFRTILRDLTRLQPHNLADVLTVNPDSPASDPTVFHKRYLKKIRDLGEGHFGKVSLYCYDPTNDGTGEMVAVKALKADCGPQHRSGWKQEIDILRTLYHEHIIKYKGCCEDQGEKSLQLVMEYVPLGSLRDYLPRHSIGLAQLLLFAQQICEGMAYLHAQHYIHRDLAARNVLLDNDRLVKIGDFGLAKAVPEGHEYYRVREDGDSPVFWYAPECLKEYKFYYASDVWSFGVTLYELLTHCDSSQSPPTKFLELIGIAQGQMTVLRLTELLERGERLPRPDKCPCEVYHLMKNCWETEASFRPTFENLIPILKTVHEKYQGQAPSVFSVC

[8] = molecular target: Tyrosine-protein kinase BTK (Homo sapiens, UniProt Q06187); assay type: functional
Sequence of Tyrosine-protein kinase BTK (Q06187 whole entry): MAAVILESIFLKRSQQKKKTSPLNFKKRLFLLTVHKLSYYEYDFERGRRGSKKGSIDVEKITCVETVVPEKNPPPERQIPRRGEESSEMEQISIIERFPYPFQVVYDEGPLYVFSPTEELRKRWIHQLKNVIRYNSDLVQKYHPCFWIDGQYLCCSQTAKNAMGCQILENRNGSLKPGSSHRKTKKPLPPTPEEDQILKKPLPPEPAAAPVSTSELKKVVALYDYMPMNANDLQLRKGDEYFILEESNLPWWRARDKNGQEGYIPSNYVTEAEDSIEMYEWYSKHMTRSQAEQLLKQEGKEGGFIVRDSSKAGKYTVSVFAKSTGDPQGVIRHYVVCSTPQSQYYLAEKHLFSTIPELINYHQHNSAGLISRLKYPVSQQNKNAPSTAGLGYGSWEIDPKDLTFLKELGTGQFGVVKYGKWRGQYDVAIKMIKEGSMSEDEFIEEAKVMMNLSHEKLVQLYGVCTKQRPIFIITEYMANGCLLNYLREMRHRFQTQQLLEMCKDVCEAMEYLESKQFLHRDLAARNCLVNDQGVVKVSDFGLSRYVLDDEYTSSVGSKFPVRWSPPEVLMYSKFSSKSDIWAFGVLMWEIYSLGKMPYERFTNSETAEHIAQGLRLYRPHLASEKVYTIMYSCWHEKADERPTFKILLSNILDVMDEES

[9] = molecular target: MAP kinase-interacting serine/threonine-protein kinase 2 (Homo sapiens, UniProt Q9HBH9); assay type: functional
Sequence of MAP kinase-interacting serine/threonine-protein kinase 2 (Q9HBH9 whole entry): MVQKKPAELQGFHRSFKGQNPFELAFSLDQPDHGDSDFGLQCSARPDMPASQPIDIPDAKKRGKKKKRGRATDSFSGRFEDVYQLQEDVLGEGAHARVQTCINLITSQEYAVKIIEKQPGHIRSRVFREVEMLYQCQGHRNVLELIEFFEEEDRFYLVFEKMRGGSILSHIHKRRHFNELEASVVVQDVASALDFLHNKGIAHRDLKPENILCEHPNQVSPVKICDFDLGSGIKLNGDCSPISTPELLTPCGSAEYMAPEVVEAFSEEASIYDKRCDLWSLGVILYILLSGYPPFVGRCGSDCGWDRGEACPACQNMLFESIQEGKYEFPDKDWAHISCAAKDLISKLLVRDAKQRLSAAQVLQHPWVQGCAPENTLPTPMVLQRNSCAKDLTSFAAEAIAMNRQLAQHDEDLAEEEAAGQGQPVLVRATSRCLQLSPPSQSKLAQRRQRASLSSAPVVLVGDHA

[10] = molecular target: Serine/threonine-protein kinase N2 (Homo sapiens, UniProt Q16513); assay type: functional
Sequence of Serine/threonine-protein kinase N2 (Q16513 whole entry): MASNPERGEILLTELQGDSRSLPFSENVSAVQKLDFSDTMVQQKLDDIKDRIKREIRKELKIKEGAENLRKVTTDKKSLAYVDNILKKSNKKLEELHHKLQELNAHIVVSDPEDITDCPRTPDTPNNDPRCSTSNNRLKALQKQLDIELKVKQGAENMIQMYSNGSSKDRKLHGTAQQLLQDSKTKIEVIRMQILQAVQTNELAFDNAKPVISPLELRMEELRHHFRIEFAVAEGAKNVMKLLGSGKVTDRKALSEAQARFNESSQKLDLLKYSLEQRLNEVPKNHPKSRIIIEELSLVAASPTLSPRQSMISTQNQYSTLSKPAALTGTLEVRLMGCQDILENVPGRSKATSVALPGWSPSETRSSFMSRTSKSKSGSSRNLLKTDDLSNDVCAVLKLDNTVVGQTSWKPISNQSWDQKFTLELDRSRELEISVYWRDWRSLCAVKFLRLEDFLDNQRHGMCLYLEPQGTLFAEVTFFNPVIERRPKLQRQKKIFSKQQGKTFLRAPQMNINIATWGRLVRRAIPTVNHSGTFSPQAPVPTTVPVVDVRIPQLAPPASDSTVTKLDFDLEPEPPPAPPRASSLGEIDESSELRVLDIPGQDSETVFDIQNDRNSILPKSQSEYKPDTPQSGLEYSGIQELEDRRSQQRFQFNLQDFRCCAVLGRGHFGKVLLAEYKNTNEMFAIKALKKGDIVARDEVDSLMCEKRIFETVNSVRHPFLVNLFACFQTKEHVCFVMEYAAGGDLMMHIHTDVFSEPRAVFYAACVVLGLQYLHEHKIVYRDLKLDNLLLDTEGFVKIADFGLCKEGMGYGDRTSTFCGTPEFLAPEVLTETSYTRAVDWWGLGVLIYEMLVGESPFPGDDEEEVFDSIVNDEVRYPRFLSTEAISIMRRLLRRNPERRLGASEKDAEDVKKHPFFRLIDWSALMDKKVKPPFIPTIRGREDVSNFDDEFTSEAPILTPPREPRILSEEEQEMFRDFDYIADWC

[11] = molecular target: Protein kinase C theta type (Homo sapiens, UniProt Q04759); assay: Navigating the Kinome. Panel member name: PRKCQ; assay type: functional
Sequence of Protein kinase C theta type (Q04759 whole entry): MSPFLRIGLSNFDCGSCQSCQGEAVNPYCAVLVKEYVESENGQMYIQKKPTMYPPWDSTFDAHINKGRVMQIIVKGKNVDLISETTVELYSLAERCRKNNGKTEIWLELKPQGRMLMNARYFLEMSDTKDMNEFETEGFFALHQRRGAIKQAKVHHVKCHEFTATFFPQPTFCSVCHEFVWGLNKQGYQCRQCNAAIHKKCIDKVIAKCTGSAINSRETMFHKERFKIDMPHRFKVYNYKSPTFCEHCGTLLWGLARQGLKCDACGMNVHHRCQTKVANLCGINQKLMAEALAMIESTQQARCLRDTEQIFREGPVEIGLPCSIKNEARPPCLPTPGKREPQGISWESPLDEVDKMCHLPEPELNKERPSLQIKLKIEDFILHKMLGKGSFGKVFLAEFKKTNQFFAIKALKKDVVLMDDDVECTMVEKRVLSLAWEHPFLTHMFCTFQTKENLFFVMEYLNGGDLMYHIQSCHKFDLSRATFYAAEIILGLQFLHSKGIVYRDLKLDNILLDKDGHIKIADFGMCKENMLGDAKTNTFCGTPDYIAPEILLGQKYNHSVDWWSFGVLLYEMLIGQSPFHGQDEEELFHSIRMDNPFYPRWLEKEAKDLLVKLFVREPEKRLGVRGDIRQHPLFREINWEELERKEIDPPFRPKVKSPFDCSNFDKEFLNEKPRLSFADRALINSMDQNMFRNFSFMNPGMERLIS

[12] = molecular target: Kappa-type opioid receptor (Homo sapiens, UniProt P41145); assay type: functional
[13] = molecular target: Mitogen-activated protein kinase 13 (Homo sapiens, UniProt O15264); assay type: functional
[14] = molecular target: Serine/threonine-protein kinase TBK1 (Homo sapiens, UniProt Q9UHD2); assay: Navigating the Kinome. Panel member name: TBK1; assay type: functional
Sequence of Serine/threonine-protein kinase TBK1 (Q9UHD2 whole entry): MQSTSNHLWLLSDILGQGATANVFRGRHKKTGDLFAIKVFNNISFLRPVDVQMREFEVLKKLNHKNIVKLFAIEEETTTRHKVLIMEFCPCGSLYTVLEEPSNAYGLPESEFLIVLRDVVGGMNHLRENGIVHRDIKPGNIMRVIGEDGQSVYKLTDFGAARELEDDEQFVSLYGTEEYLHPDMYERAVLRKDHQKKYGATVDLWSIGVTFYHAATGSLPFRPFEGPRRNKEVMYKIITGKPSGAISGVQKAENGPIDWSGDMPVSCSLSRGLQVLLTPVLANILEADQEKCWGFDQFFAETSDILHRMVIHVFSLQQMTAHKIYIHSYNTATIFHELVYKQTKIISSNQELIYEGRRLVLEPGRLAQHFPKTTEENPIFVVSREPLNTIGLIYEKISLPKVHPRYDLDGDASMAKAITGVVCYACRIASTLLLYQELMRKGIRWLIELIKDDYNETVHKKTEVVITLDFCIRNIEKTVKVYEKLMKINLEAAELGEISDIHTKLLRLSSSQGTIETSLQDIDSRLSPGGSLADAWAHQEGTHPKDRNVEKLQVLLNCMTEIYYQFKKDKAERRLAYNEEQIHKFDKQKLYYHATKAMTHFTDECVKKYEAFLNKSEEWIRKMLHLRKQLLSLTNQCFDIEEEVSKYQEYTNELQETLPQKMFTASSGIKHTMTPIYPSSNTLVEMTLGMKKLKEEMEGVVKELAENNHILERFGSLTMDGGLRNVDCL

In the case of O=C(O)c1ccc(NC2=C(Cl)C(=O)c3ccccc3C2=O)cc1, the EC50 [1] is reported as 4.97 µM (active).
With O=C(O)c1ccc2c3c(ncnc13)-c1ccccc1C2=O the EC50 [2] was 34.8 µM (active) and the EC50 [3] was 31.9 µM (active).
For CCOC(=O)c1c2c(n(Cc3ccccc3)c1C)C(=O)C(=O)c1ccccc1-2, the CC50 [4] was 0.87 µM (active), the AC50 [5] was 15.7 µM (active) and the AC50 [6] was 6.74 µM (active).
With Cc1ccc2nccc(NC(=O)Nc3cccc(C(F)(F)F)n3)c2c1 the Ki [7] was > 2 µM (inactive), the Ki [8] was > 1.26 µM (inactive) and the Ki [9] was > 10 µM (inactive). The Ki [10] was > 7.94 µM (inactive).
For Cc1nn(C)c2sc3c(=O)[nH]cnc3c12, the Ki [11] was 79.4 µM (active).
With Cc1c(/N=C2\C=CC(=O)c3ccccc32)c(=O)n(-c2ccccc2)n1C the IC50 [12] was over 32 µM.
With COc1cc2c(cc1F)C(c1ccccc1Cl)=Nc1c(n[nH]c1C)N2 [RG-1530] the Ki [13] was > 7.94 µM (inactive) and the Ki [14] was > 2.51 µM (inactive).
